Measured values reported in patent US12569508B2, “Antimicrobial compositions and methods of use” (priority 2020, dated 2026).

Key:
[1] = aerosolised, CF patients; cited from earlier work
PAO1 biofilm = assay: In vitro MBEC antibiofilm assay; assay type: cell-based, P. aeruginosa; conditions: 5 μg/mL and 15 μg/mL TOB; 24 h
Protocol: The pegs on lid of the MBEC Assay® were submerged into the bacterial suspension, with column 12 containing sterile LB broth as a negative control. The plate was incubated at 37° C. on a rotating gyrator for 24 h to form biofilm on the pegs. After 24 h, the peg lid was removed and transferred into another 96-well microtiter plate containing sterile water for 30 seconds before being transferred into a treatment plate. The peg lid in the treatment plate was incubated for 24 h at 37° C. on the rotating gyrator. In the first study, the effect of concentration variation of TOB in MO-LCNPs was determined. […] The respective controls included unloaded formulations MO-LCNP and […] at equivalent concentrations and 0.9% NaCl. […] In the second study, the difference in effect of MO- and […] compared to liposomes containing TOB was determined. […] The final concentration of MO and PHY was 0.25 mg/mL. Liposomes were prepared as described above. In the third study, TOB, AMI and GEN as unformulated solutions and loaded in MO-LCNPs were compared as treatments against PAO1 biofilms in the MBEC Assay®. The concentration of each antibiotic was 6 μg/mL. […] In all four different studies, the treatments were incubated with the PAO1 biofilm grown on the MBEC Assay® on a rotating plate at 37° C. After 24 h incubation, the peg lid was transferred to a fresh plate containing sterilized water to inhibit treatments. […]

CFBE41o− = assay type: cell-based, human
Protocol: Cell viability was assessed through taking the contents of the basolateral compartment media and reacting it with a Cytotoxicity Detection Kit (LDH) (Roche) to determine the amount of LDH released. 200 μL of the basolateral media was taken and centrifuged at 300×g for 10 mins. 100 μL of the supernatant was mixed with 100 μL of the reaction solution, as per manufacturer's instructions. LDH release was measured after 5-minute incubation at room temperature using a plate reader at an absorbance of 492 nm.

P. aeruginosa Xen41 = assay: Chronic full-thickness wound infection model: bacterial load; assay type: in vivo, Balb/c mice
Protocol: Immediately after wounding, group 1 was inoculated with 10^7 CFU of bioluminescent P. aeruginosa strain (Xen41, PerkinElmer, Waltham, MA, USA) in 10 μL of 0.9% saline. All other mice were covered with an adhesive dressing (Opsite Flexigrid, Smith & Nephew, London, UK). All mice were given soaked food and free access to water for the study. Postoperative analgesia (0.05 mg/kg buprenorphine) was provided 10 h and 24 h post-surgery via subcutaneous administration. After inoculation, mice were imaged using IVIS Spectrum Live Animal Imaging System (PerkinElmer, Waltham, MA, USA) and then daily until sacrifice to quantity radiance (photons/s) of the bioluminescent bacteria in the wound and correlate to the infection load, as previously described (Abbott C A et al., 2013, Contributors, in Handbook of Proteolytic Enzymes, N. D. Rawlings and G. Salvesen, Editors. 2013, Academic Press. p. xxxv-xlviii). Using built-in Living Image R software, regions of interest (ROI) were selected surrounding the wound to quantify the total photon emission following established protocols (Haidari, H., et al., 2021, Acta Biomaterialia, 128: 420-434; Kopecki, Z., et al., 2009, Journal of Investigative Dermatology, 129(8): 2031-2045).
After the pilot, it was determined that a 6 mm wound+10^6 CFU P. aeruginosa infection was the appropriate model to proceed with. […]

NC[C@H]1O[C@H](O[C@H]2[C@H](O)[C@@H](O[C@H]3O[C@H](CO)[C@@H](O)[C@H](N)[C@H]3O)[C@H](N)C[C@@H]2N)[C@H](N)C[C@@H]1O [unformulated TOB, tobramycin]
bioavailability [1]: 9.13%
reduction of PAO1 load compared to the no treatment control (PAO1 biofilm): 2 log
epithelium cell monolayer viability (CFBE41o−): maintained the epithelium cell monolayer viability
cell viability of the epithelium monolayer (CFBE41o−; human, 24 h): above 80%
change in infection level compared to saline (P. aeruginosa Xen41; after each once-daily dose): no statistical change in the infection level
P. aeruginosa remaining in excised wounds (P. aeruginosa Xen41; day six, after three doses of 15 μg topical): 5×10^6 CFU
